From patent US20260174083A1, “FUNGICIDAL MIXTURE COMPRISING SUBSTITUTED PYRIDINES” (BASF SE, priority 2022, published 2026) come the findings set out here.

The structures appear in SMILES notation. Where two headings read alike, the source gives them in different places.

Holding throughout (type): cell-based
For one experiment, the system named is Septoria tritici. Put plainly: Activity against leaf blotch on wheat caused by Septoria tritici (microtiterplate test).
The test system of another experiment is Botrytis cinerea. Description: Activity against the grey mold Botrytis cinerea in the microtiterplate test.
For another experiment, the system named is Pyricularia oryzae. Put plainly: microbe, parasite or virus in culture. The settings on record: for Observed efficacy: single active, MTP, 405 nm, 7 days after inoculation.
Setting [1] is: Botrytis cinerea, 168 h, single active, MTP, 405 nm, 7 days after inoculation, read-out: Observed efficacy.
[2] abbreviates: Botrytis cinerea, 168 h, single active, 1 ppm, MTP, 405 nm, 7 days after inoculation, read-out: Observed efficacy.
Setting [3] is: Pyricularia oryzae, 168 h, read-out: Observed efficacy.
Setting [4] is: Zymoseptoria tritici, 168 h, single active, 0.016 ppm, MTP, 405 nm, 7 days after inoculation, read-out: Observed efficacy.
Where [5] appears, read: Zymoseptoria tritici, 168 h, single active, 0.063 ppm, MTP, 405 nm, 7 days after inoculation, read-out: Observed efficacy.
Where [6] appears, read: Zymoseptoria tritici, 168 h, single active, 0.25 ppm, MTP, 405 nm, 7 days after inoculation, read-out: Observed efficacy.
Setting [7] is: single active, 0.063 ppm, MTP, 405 nm, 7 days after inoculation.
[8] abbreviates: Botrytis cinerea, 168 h, single active, 4 ppm, MTP, 405 nm, 7 days after inoculation, read-out: Observed efficacy.
[9] abbreviates: Zymoseptoria tritici, 168 h, single active, MTP, 405 nm, 7 days after inoculation, read-out: Observed efficacy.

Regarding `Cc1ccc(NC(=O)c2snnc2C)cc1Cl` [Tiadinil, tiadinil, reference compound], the inhibition of growth at 4 ppm in the experiment with Septoria tritici (Zymoseptoria tritici, 168 h, single active, 4 ppm, MTP, 405 nm, 7 days after inoculation, read-out: Observed efficacy) is 24%.

With `CNC(=O)/C(=N/OC)c1ccccc1COc1cc(C)ccc1C` [Dimoxystrobin, dimoxystrobin, reference compound], the Observed efficacy in the experiment on Botrytis cinerea (single active, 1 ppm, MTP, 405 nm, 7 days after inoculation) was 16%; in the experiment on Pyricularia oryzae (1 ppm), 16%.

On to `Cc1cc(C2=N[C@@H](C)C(C)(C)Oc3c(F)cccc32)cnc1C(F)F` [Compound 1-2], for which the inhibition of growth at 0.063 ppm in the experiment on Botrytis cinerea (Botrytis cinerea, 168 h, single active, 0.063 ppm, MTP, 405 nm, 7 days after inoculation, read-out: Observed efficacy) was found to be 11%; in the experiment on Pyricularia oryzae (setting [3]), 11%; in the experiment with Septoria tritici (setting [5]) it was 0%. Further, the inhibition of growth at 0.25 ppm in the experiment with Botrytis cinerea (setting [1]) is 11%; with Pyricularia oryzae (setting [3]), 11%; in the experiment on Septoria tritici (setting [6]), 13%. Moreover, the inhibition of growth at 1 ppm with Botrytis cinerea (setting [2]) and in the experiment on Pyricularia oryzae (setting [3]) was 35% throughout. In addition, in the experiment with Septoria tritici (setting [4]), the inhibition of growth at 0.016 ppm is 0%.

Regarding `Cc1cc(C2=N[C@@H](C)C(C)(C)Oc3ccccc32)cnc1C(F)F` [Compound 1-4], the inhibition of growth at 1 ppm with Botrytis cinerea (setting [2]) and in the experiment on Pyricularia oryzae (setting [3]) was 17% throughout.

`Cc1cc(C2=NC(C)C(C)(C)Oc3c(F)cccc32)cnc1C(F)F` (stereo not drawn) [Compound 1-3]: the inhibition of growth at 1 ppm in the experiment with Botrytis cinerea (setting [2]) came out at 9%; in the experiment on Pyricularia oryzae (setting [3]), 19%.

As for `N#Cc1ccccc1NC(=O)c1snc(Cl)c1Cl` [Isotianil, isotianil, reference compound], the Observed efficacy turned out to be 6% with Botrytis cinerea (single active, 4 ppm, MTP, 405 nm, 7 days after inoculation) and 6% in the experiment on Pyricularia oryzae (4 ppm).

`CC(C)OC(=O)C(C(=O)OC(C)C)=C1SCCS1` [Isoprothiolan, isoprothiolane, reference compound]: the inhibition of growth at 4 ppm was found to be 8% with Botrytis cinerea (Botrytis cinerea, 168 h, read-out: Observed efficacy) and 8% with Pyricularia oryzae (setting [3]).

For the molecule `CC1COC(Cn2cncn2)(c2ccc(Oc3ccc(Cl)cc3)cc2Cl)O1` (stereo not drawn) [Difenoconazol, difenoconazole, reference compound], the inhibition of growth at 0.25 ppm in the experiment on Botrytis cinerea (setting [1]) and in the experiment on Pyricularia oryzae (setting [3]) was 26% in each case.

`Cn1cc(C(=O)Nc2ccccc2-c2cc(F)c(F)c(F)c2)c(C(F)F)n1` [Fluxapyroxad, fluxapyroxad, reference compound] showed an Observed efficacy in the experiment on Septoria tritici (setting [7]) of 37%.

For `CC(C)NC(=O)N1CC(=O)N(c2cc(Cl)cc(Cl)c2)C1=O` [Iprodion, iprodione, reference compound], the inhibition of growth at 1 ppm with Botrytis cinerea (setting [2]) and with Pyricularia oryzae (setting [3]) was 60% in each case.

As for `Cc1cccc2sc3nncn3c12` [Tricyclazol, tricyclazole, reference compound], the inhibition of growth at 4 ppm in the experiment on Botrytis cinerea (setting [8]) and with Pyricularia oryzae (setting [3]) was 14% each time. The inhibition of growth at 1 ppm in the experiment on Septoria tritici (setting [9]) came to 14%.

Turning to `Cc1cc(OC(C)C)ccc1C(=O)C(C)(C)NC(=O)c1sccc1C` [Isofetamid, isofetamid, reference compound], the Observed efficacy in the experiment with Septoria tritici (single active, 0.25 ppm, MTP, 405 nm, 7 days after inoculation) is reported as 46%.

For the molecule `O=C(Nc1ccccc1-c1ccc(Cl)cc1)c1cccnc1Cl` [Boscalid, boscalid, reference compound], the inhibition of growth at 1 ppm in the experiment with Septoria tritici (setting [9]) came out at 54%.

Molecule `CO/C=C(/C(=O)OC)c1ccccc1Oc1cc(Oc2ccccc2C#N)ncn1` [Azoxystrobin, azoxystrobin, reference compound] showed an Observed efficacy in the experiment on Septoria tritici (single active, 0.016 ppm, MTP, 405 nm, 7 days after inoculation) of 0%.

With `OC(Cc1ccccc1Cl)(Cn1nc[nH]c1=S)C1(Cl)CC1` (stereo not drawn) [Prothioconazol, prothioconazole, reference compound], the inhibition of growth at 4 ppm in the experiment with Botrytis cinerea (setting [8]) and in the experiment on Pyricularia oryzae (setting [3]) was 35% each time. Moreover, the inhibition of growth at 0.25 ppm in the experiment on Septoria tritici (setting [6]) was determined as 42%.

With `N#Cc1c[nH]cc1-c1cccc2c1OC(F)(F)O2` [Fludioxonil, fludioxonil, reference compound], the inhibition of growth at 0.25 ppm with Septoria tritici (Zymoseptoria tritici, 168 h, read-out: Observed efficacy) turned out to be 26%.

Take `Cc1cc(C2=NCC(C)(C)Oc3c(F)cccc32)cnc1C(F)F` [Compound 1-7]: the inhibition of growth at 0.25 ppm with Botrytis cinerea (setting [1]) and with Pyricularia oryzae (setting [3]) was 0% in each case. Besides, in the experiment on Septoria tritici (setting [4]), the inhibition of growth at 0.016 ppm was determined as 12%.

`CC(O)(Cn1cncn1)c1ccc(Oc2ccc(Cl)cc2)cc1C(F)(F)F` (stereo not drawn) [Mefentrifluconazol, mefentrifluconazole, reference compound]: the Observed efficacy in the experiment on Botrytis cinerea (setting [7]) and in the experiment on Pyricularia oryzae (0.063 ppm) was 49% in each case.

Regarding `COC(=O)NC(=S)Nc1ccccc1NC(=S)NC(=O)OC` [Thiophanate methyl, thiophanate-methyl, reference compound], the inhibition of growth at 1 ppm in the experiment with Botrytis cinerea (setting [2]) turned out to be 9%; in the experiment on Pyricularia oryzae (setting [3]) it was 9%; in the experiment with Septoria tritici (setting [9]), 10%.

Consider `Cc1cc(C2=N[C@H](C)C(C)(C)Oc3ccccc32)cnc1C(F)F` [Compound 1-5], for which the inhibition of growth at 0.016 ppm in the experiment with Septoria tritici (setting [4]) is 0%. Further, in the experiment with Septoria tritici (setting [5]), the inhibition of growth at 0.063 ppm stood at 3%. Also, the inhibition of growth at 0.25 ppm in the experiment with Septoria tritici (setting [6]) was 1%.

In the case of `Cc1cc(C2=N[C@@H](C)[C@H](C)Oc3ccccc32)cnc1C(F)F` [Compound 1-1], the inhibition of growth at 0.25 ppm in the experiment with Botrytis cinerea (setting [1]) stood at 7%; in the experiment with Pyricularia oryzae (setting [3]), 7%; with Septoria tritici (setting [6]), 26%. Moreover, the inhibition of growth at 0.016 ppm in the experiment on Septoria tritici (setting [4]) was found to be 0%. In the experiment with Septoria tritici (setting [5]), the inhibition of growth at 0.063 ppm worked out at 0%.

For `Cc1cc(C2=NC3(CC3)COc3c(F)cccc32)cnc1C(F)F` [Compound 1-6], the values for the inhibition of growth at 0.25 ppm with Botrytis cinerea (setting [1]), in the experiment with Pyricularia oryzae (setting [3]) and in the experiment with Septoria tritici (setting [6]) were 5%, 5% and 0%, respectively. For the same molecule, the inhibition of growth at 1 ppm in the experiment on Botrytis cinerea (setting [2]) worked out at 14%; with Pyricularia oryzae (setting [3]), 14%; in the experiment with Septoria tritici (setting [9]), 3%.
